Source: patent publication US9393193B2, “Compositions for controlling heartworm infestation” (CEVA SANTA ANIMALE, priority 2010, dated 2016)

What was measured:
[1] = beagle dogs, cited from earlier work
[2] = estimated from reports from non recommended use; cited from earlier work
[3] = 14-week oral, cited from earlier work
Dirofilaria larvae = conditions: cited from earlier work
Dirofilaria = assay: Effective plasma rate of ivermectin established by the applicant; assay type: in vivo
Text: Thus, the formulations according to the present invention provide a long term protection, e.g., at least 6 months for the collar, strip collar, or medallion formulation against infections caused by parasites.

Substance: ivermectin
- Time course of H2B1a concentration in plasma ([1]; oral 0.5 and 2.0 mg/kg bw): reached steady-state after about three weeks
- Average increase in plasma levels on a four-fold increase in the dose ([1]; oral 0.5 vs 2.0 mg/kg bw): eight-fold increase
- Share of collie dogs highly sensitive to ivermectin [2]: Approximately 30%
- Severe findings, dogs killed prior to the end of the study ([3]; 2.0 mg/kg bw group, four dogs): tremors, ataxia, anorexia and dehydration
- Findings observed ([3]; 1.0 and 2.0 mg/kg bw, beagle dogs): mydriasis and slight weight loss
- No Observable Effect Level (NOEL) ([3]; beagle dogs): 0.5 mg/kg bw
- Effective rate of ivermectin in the plasma (Dirofilaria larvae; Cunningham C P et al., Am. J. Vet. Res., 2006): ≥ 0.2 ng/mL
- Effect on one month aged Dirofilaria larvae (Dirofilaria larvae; ivermectin per se at 6 mcg/kg): able to kill efficiency one month aged Dirofilaria larvae
- Effective rate of ivermectin in the plasma (Dirofilaria): around 0.1 ng/mL
